Patent EP4389210A1, “HETEROARYL COMPOUNDS FOR THE CONTROL OF INVERTEBRATE PESTS” (BASF SE, priority 2022, dated 2024)

Experiments:
Type in all cases: in vivo
[1] = tested on: Anthonomus grandis; assay: Boll weevil (Anthonomus grandis) control, 96-well microtiter plate insect diet test with eggs; conditions: 120 h, egg and larval mortality visually assessed after 5 days at about 25 ± 1°C, read-out: mortality in comparison with untreated controls
Procedure: For evaluating control of boll weevil (Anthonomus grandis) the test unit consisted of 96-well-microtiter plates containing an insect diet and 5-10 A. grandis eggs.
The compounds were formulated using a solution containing 75% v/v water and 25% v/v DMSO. Different concentrations of formulated compounds were sprayed onto the insect diet at 5µl, using a custom-built micro atomizer, at two replications.
After application, microtiter plates were incubated at about 25 ± 1°C and about 75 ± 5 % relative humidity for 5 days. Egg and larval mortality was then visually assessed.

[2] = tested on: Aedes aegypti; assay: whole plant or invertebrate; conditions: 48 h, larval mortality visually assessed after 2 days at 28±1°C, read-out: mortality in comparison with untreated controls
Procedure: For evaluating control of yellow fever mosquito (Aedes aegypti) the test unit consisted of 96-well-microtiter plates containing 200µl of tap water per well and 5-15 freshly hatched A. aegypti larvae.
The active compounds were formulated using a solution containing 75% (v/v) water and 25% (v/v) DMSO. Different concentrations of formulated compounds or mixtures were sprayed onto the insect diet at 2.5µl, using a custom-built micro atomizer, at two replications.
After application, microtiter plates were incubated at 28±1°C, 80±5 % RH for 2 days. Larval mortality was then visually assessed.

[3] = tested on: Spodoptera eridania; assay: Southern armyworm (Spodoptera eridania), 2nd instar larvae, foliar spray on lima bean plants; conditions: 96 h, 2nd instar larvae on sprayed lima bean plants, assessed 4 days after treatment, read-out: mortality in comparison with untreated controls
Procedure: The active compounds were formulated by a Tecan liquid handler in 100% cyclohexanone as a 10,000 ppm solution supplied in tubes. The 10,000 ppm solution was serially diluted in 100% cyclohexanone to make interim solutions. These served as stock solutions for which final dilutions were made by the Tecan in 50% acetone:50% water (v/v) into 10 or 20ml glass vials. A nonionic surfactant (Kinetic®) was included in the solution at a volume of 0.01% (v/v). The vials were then inserted into an automated electrostatic sprayer equipped with an atomizing nozzle for application to plants/insects. Lima bean plants (variety Sieva) were grown 2 plants to a pot and selected for treatment at the 1st true leaf stage. Test solutions were sprayed onto the foliage by an auto-mated electrostatic plant sprayer equipped with an atomizing spray nozzle. The plants were dried in the sprayer fume hood and then removed from the sprayer. Each pot was placed into perforated plastic bags with a zip closure. Ten to 11 armyworm larvae were placed into the bag and the bags zipped closed. Test plants were maintained in a growth room at about 25°C and about 20-40% relative humidity for 4 days, avoiding direct exposure to fluorescent light (14:10 light:dark photoperiod) to prevent trapping of heat inside the bags. Mortality and reduced feeding were assessed 4 days after treatment, compared to untreated control plants.

[4] = tested on: Heliothis virescens; assay: Tobacco budworm (Heliothis virescens) control, 96-well microtiter plate insect diet test with eggs; conditions: 120 h, egg and larval mortality visually assessed after 5 days at about 28 ± 1°C, read-out: mortality in comparison with untreated controls
Procedure: For evaluating control of tobacco budworm (Heliothis virescens) the test unit consisted of 96-well-microtiter plates containing an insect diet and 15-25 H. virescens eggs.
The compounds were formulated using a solution containing 75% v/v water and 25% v/v DMSO. Different concentrations of formulated compounds were sprayed onto the insect diet at 10 µl, using a custom-built micro atomizer, at two replications.
After application, microtiter plates were incubated at about 28 ± 1°C and about 80 ± 5 % relative humidity for 5 days. Egg and larval mortality was then visually assessed.

[5] = tested on: Dichromothrips corbetti; assay: Orchid thrips (Dichromothrips corbetti) floral-immersion test; conditions: adult thrips on dipped orchid petals, recorded 72 hours after treatment, read-out: mortality in comparison with untreated controls
Procedure: Dichromothrips corbetti adults used for bioassay were obtained from a colony maintained continuously under laboratory conditions. For testing purposes, the test compound is diluted in a 1:1 mixture of acetone:water (vol:vol), plus Kinetic HV at a rate of 0.01% v/v.
Thrips potency of each compound was evaluated by using a floral-immersion technique. All petals of individual, intact orchid flowers were dipped into treatment solution and allowed to dry in Petri dishes. Treated petals were placed into individual re-sealable plastic along with about 20 adult thrips. All test arenas were held under continuous light and a temperature of about 28°C for duration of the assay. After 3 days, the numbers of live thrips were counted on each petal. The percent mortality was recorded 72 hours after treatment.

CC(NC(=O)c1cc(Cl)cc(C(F)(F)F)c1)c1ncccc1-n1nccn1 (stereo not drawn) [Compound I-1]
≥ 75%: mortality at 2500 ppm [1] | mortality at 2500 ppm [2] | mortality at 300 ppm [3] | mortality at 2500 ppm [4] | mortality at 300 ppm [5]

CC(NC(=O)c1cc(Cl)cc(C(F)(F)F)c1)c1ncccc1-n1cc(C#N)cn1 (stereo not drawn) [Compound I-2]
≥ 75%: mortality at 2500 ppm [1] | mortality at 2500 ppm [2] | mortality at 300 ppm [3]

CC(NC(=O)c1cc(Cl)cc(C(F)(F)F)c1)c1nc(Cl)ccc1-n1nccn1 (stereo not drawn) [Compound I-3, 3-chloro-N-[1-[6-chloro-3-(triazol-2-yl)-2-pyridyl]ethyl]-5-(trifluoromethyl)benzamide]
≥ 75%: mortality at 2500 ppm [1] | mortality at 2500 ppm [2] | mortality at 300 ppm [3] | mortality at 2500 ppm [4]
